Test results taken from patent US20040014813A1, “Anthelminthic agents for the prevention of parasitic infections in humans and animals II” (priority 2000, published 2004).

Columns and labels:
[1] = tested on: Schistosoma mansoni cercariae; assay: Activity against Schistosoma mansoni cercariae (survival/mobility under stereomagnifier); format: cell-based; parameters: key: no effect during the entire test period of 120 minutes; 1: weak effect (the cercariae have a strongly reduced mobility); 2: good effect (the cercariae are only slightly mobile and bent); 3: full effect (the cercariae are completely immobile); details: 500 >1/l final concentration of the active compounds; 5 μl active compound in 25 μl PEG300 + 9 ml aquarium water + 1 ml cercariae suspension; test period 120 minutes
Description: Activity Against Schistosoma Mansoni Cercariae
[500 >1/l Final Concentration of the Active Compounds]
Snails (Biomphalaria glabrata) were infected by incubating each of them with 8 miracidia in 10 ml of water overnight. About 6 to 9 weeks after the infection, cercariae were obtained by irradiating the snails, which had been kept in darkness, with light, followed by collection of the swarming cercariae within 2 hours.
Such an amount of cercariae-containing water (1 or 2 ml, see below) was added to the test batches that each batch contained about 100 to 150 cercariae.
5 μl of active compound were mixed thoroughly with 25 μl of PEG300. 9 ml of aquarium water was then added, and the batch was shaken vigorously. After (delayed) addition of 1 ml of cercariae suspension, survival of the cercariae was in each case observed immediately using a stereomagnifier.

[2] = tested on: cercariae of Schistosoma mansoni; details: literature (Fripp and Armstrong 1973; Salafsky et al. 1998); cited from earlier work
[3] = tested on: cercariae of Schistosoma mansoni; details: literature (Bruce et al. 1992), monkeys, topical; cited from earlier work
[4] = EU Directive on Dangerous Substances; Registry of Toxic Effects of Chemical Substances; cited from earlier work

CC(C)(C)C(=O)N1CCCCC1CCO (stereo not drawn)
Assessment [1]: 3

CCCCC(=O)N1CCCCC1CCO (stereo not drawn)
Assessment [1]: 2

CCCCC(=O)N1CCCCC1CCOC (stereo not drawn)
Assessment [1]: 2

CCN(CC)C(=O)CC1CCCCC1
Assessment [1]: 3

CCN(CC)C(=O)c1cccc(C)c1 [N,N-Diethyl-m-toluamide (DEET), N,N-Diethyl-m-toluamide]
effect on cercariae of Schistosoma mansoni [2]: acts against cercariae

O=C(Nc1ccc([N+](=O)[O-])cc1Cl)c1cc(Cl)ccc1O [Niclosamide]
action against the penetration of cercariae [3]: acts against the penetration of cercariae
toxicity [4]: may possibly cause inheritable genetic damage

Oc1c(Cl)cc(Cl)c(Cl)c1Cc1c(O)c(Cl)cc(Cl)c1Cl [hexachlorophene]
effect on cercariae of Schistosoma mansoni [2]: lethal effect
toxicity [4]: toxic on contact with the skin and when swallowed
